Reference: patent US20230373974A1, “MODULATORS OF CYSTIC FIBROSIS TRANSMEMBRANE CONDUCTANCE REGULATOR” (VERTEX PHARMACEUTICALS INCORPORATED, priority 2020, published 2023)
pEC50: −log10 of the molar value.

Molecular target: T1, F508del in NIH 3T3 cells (Homo sapiens, UniProt P13569, DEL508-508)
T1 construct: expressed in transfected cells
Test: 3T3 assay: membrane potential optical assay for F508del correction
Type: cell-based, mouse
Conditions: F508del NIH 3T3 cells; for pEC50: incubated with compound 18-24 hours at 37° C., forskolin activation; for Emax: NIH3T3, efficacy compared to lumacaftor in combination with acutely added 300 nM Ivacaftor, read-out: 3T3 Max Activity (%)
Description: Membrane Potential Optical Methods for Assaying F508del Modulation Properties of Compounds The assay utilizes fluorescent voltage sensing dyes to measure changes in membrane potential using a fluorescent plate reader (e.g., FLIPR III, Molecular Devices, Inc.) as a readout for increase in functional F508del in NIH 3T3 cells. The driving force for the response is the creation of a chloride ion gradient in conjunction with channel activation by a single liquid addition step after the cells have previously been treated with compounds and subsequently loaded with a voltage sensing dye. 2. Identification of Corrector Compounds To identify correctors of F508del, a single-addition HTS assay format was developed. This HTS assay utilizes fluorescent voltage sensing dyes to measure changes in membrane potential on the FLIPR III as a measurement for increase in gating (conductance) of F508del in F508del NIH 3T3 cells. The F508del NIH 3T3 cell cultures were incubated with the corrector compounds at a range of concentrations for 18-24 hours at 37° C., and subsequently loaded with a redistribution dye. The driving force for the response is a Cl^− ion gradient in conjunction with channel activation with forskolin in a single liquid addition step using a fluorescent plate reader such as FLIPR III. […] Solutions […] Chloride-free bath solution: Chloride salts in Bath Solution #1 (above) are substituted with gluconate salts. 4. Cell Culture NIH3T3 mouse fibroblasts stably expressing F508del are used for optical measurements of membrane potential. The cells are maintained at 37° C. in 5% CO2 and 90% humidity in Dulbecco's modified Eagle's medium supplemented with 2 mM glutamine, 10% fetal bovine serum, 1×NEAA, b-ME, 1×pen/strep, and 25 mM HEPES in 175 cm^2 culture flasks. For all optical assays, the cells were seeded at ˜20,000/well in 384-well Matrigel-coated plates. For the correction assays, the cells are cultured at 37° C. with and without compounds for 16-24 hours.

T1 sequence (P13569 with tags, fused parts or gaps DEL508-508): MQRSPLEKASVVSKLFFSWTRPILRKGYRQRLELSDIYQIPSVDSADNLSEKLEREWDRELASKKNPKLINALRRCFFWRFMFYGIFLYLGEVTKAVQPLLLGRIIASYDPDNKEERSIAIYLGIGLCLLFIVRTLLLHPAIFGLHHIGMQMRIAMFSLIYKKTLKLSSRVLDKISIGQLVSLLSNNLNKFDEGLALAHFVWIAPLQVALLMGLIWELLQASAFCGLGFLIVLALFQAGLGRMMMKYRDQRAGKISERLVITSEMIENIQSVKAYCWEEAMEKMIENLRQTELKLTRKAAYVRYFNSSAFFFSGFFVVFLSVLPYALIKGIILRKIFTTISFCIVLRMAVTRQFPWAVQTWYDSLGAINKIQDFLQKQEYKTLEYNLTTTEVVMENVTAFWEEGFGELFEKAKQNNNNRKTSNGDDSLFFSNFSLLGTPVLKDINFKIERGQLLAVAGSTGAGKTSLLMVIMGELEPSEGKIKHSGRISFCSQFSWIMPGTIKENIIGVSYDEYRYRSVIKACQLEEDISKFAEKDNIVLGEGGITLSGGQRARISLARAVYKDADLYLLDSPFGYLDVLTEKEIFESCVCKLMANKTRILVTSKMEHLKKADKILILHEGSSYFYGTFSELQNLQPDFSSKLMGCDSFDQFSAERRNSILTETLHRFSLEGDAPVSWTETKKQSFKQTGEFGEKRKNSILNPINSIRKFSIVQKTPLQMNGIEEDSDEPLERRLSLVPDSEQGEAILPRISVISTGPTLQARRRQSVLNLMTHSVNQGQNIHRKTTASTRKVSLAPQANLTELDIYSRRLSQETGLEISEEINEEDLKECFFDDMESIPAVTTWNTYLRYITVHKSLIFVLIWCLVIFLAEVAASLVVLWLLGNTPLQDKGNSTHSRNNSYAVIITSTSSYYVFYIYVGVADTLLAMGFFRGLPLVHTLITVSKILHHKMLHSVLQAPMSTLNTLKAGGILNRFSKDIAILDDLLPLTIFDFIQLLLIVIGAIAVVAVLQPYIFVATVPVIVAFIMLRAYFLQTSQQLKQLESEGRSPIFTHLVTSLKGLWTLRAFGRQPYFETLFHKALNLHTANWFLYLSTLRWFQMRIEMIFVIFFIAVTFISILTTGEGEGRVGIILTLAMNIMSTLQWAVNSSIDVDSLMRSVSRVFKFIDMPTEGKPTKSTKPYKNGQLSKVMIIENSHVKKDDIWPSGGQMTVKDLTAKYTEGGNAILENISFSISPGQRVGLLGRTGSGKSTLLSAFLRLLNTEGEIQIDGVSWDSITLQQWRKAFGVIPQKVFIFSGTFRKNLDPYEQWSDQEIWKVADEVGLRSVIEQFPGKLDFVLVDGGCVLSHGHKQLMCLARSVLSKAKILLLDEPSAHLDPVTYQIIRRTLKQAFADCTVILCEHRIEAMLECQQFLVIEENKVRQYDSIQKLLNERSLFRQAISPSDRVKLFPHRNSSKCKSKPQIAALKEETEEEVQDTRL

Row | Structure (SMILES) | pEC50 | Emax [%]
1 | Cc1ccccc1Oc1nc(NS(=O)(=O)c2cnn(C)c2)nc2c1C(C)(C)CCC2 [Compound 1, N-[5,5-dimethyl-4-(2-methylphenoxy)-7,8-dihydro-6H-quinazolin-2-yl]-1-methyl-pyrazole-4-sulfonamide] | 5.52 to 6.00 | > 60
2 | Cc1cc(C)cc(-n2cc(NS(=O)(=O)c3ccccc3)c3ccc(C(C)(C)C)nc32)c1 [Compound 88] | – | < 30
3 | Cc1cc(C)c(-n2nc(NS(=O)(=O)c3cccc(N)n3)c3ccc(C(C)(C)C)nc32)c(C)c1 [Compound 42] | 5.52 to 6.00 | 30 to 60
4 | Cc1cc(C)c(-n2nc(NS(=O)(=O)c3ccc(N)cc3)c3ccc(C(C)(C)C)nc32)c(C)c1 [Compound 36, 4-Amino-N-[6-tert-butyl-1-(2,4,6-trimethylphenyl)pyrazolo[3,4-b]pyridin-3-yl]benzenesulfonamide] | 5.52 to 6.00 | –
5 | Cc1cccc(C)c1-c1nc(NS(=O)(=O)c2ccccc2)nc2c1CCCC2(C)c1ccccc1 (stereo not drawn) [Compound 76, N-[4-(2,6-Dimethylphenyl)-8-methyl-8-phenyl-6,7-dihydro-5H-quinazolin-2-yl]benzenesulfonamide] | > 6.00 | > 60
6 | O=S(=O)(Nc1nc(Oc2ccccc2)nc2ccccc12)c1ccccc1 [Compound 16] | – | < 30
7 | CC(C)(O)C1CCc2nc(NS(=O)(=O)c3ccccc3)sc2C1 (stereo not drawn) [Compound 21] | – | < 30
8 | O=S(=O)(Nc1nc2c(s1)-c1ccccc1CC2)c1ccccc1 [Compound 20, N-(4,5-Dihydrobenzo[g][1,3]benzothiazol-2-yl) benzenesulfonamide] | 4.52 to 5.52 | –
9 | Cc1cc(C)cc(-c2nc(NS(=O)(=O)c3ccccc3)c3ccc(C(C)(C)C)nc3n2)c1 [Compound 17] | – | < 30
10 | Cc1ccccc1Oc1nc(NS(=O)(=O)c2cnn(C)c2)nc2c1CCC(C)(C)C2 [Compound 2, N-[7,7-Dimethyl-4-(2-methylphenoxy)-6,8-dihydro-5H-quinazolin-2-yl]-1-methyl-pyrazole-4-sulfonamide] | 5.52 to 6.00 | > 60
11 | Cc1cc(C)c(-c2nnc(NS(=O)(=O)c3ccccc3)c3ccc(C(C)(C)C)nc23)c(C)c1 [Compound 90] | – | < 30
12 | Cc1cc(C)c(-n2nc(NS(=O)(=O)c3cccc(N)c3)c3ccc(C(C)(C)C)nc32)c(C)c1 [Compound 61] | > 6.00 | 30 to 60
13 | COc1ccccc1S(=O)(=O)Nc1nn(-c2c(C)cc(C)cc2C)c2nc(C(C)(C)C)ccc12 [Compound 59] | 5.52 to 6.00 | 30 to 60
14 | Cc1ccccc1-n1nc(NS(=O)(=O)c2ccccc2)c2ccc(Br)cc21 [Compound 70, N-[6-bromo-1-(o-tolyl)indazol-3-yl]benzenesulfonamide] | 5.52 to 6.00 | 30 to 60
15 | Cc1cccc(C)c1Oc1nc2ccccc2nc1NS(=O)(=O)c1ccccc1 [Compound 11, N-[3-(2,6-Dimethylphenoxy)quinoxalin-2-yl]benzenesulfonamide] | 4.52 to 5.52 | –
16 | COc1cccc(S(=O)(=O)Nc2nn(-c3c(C)cc(C)cc3C)c3nc(C(C)(C)C)ccc23)c1 [Compound 60] | > 6.00 | 30 to 60
17 | CC(C)(C)c1ccc2c(NS(=O)(=O)c3ccccc3)nn(-c3ccccc3)c2n1 [Compound 40] | > 6.00 | 30 to 60

Row | Structure (SMILES) | pEC50 | Emax [%]
18 | Cc1cc(C)c(Oc2cc(C(C)(C)C)cc3nnc(NS(=O)(=O)c4ccccc4)n23)c(C)c1 [Compound 95] | – | < 30
19 | Cc1cc(C)c(-n2nc(NS(=O)(=O)c3ccccc3Cl)c3ccc(C(C)(C)C)nc32)c(C)c1 [Compound 68] | – | < 30
20 | Cc1cc(C)c(Oc2nc(NS(=O)(=O)c3ccccc3)c3ccc(C(C)(C)C)nc3n2)c(C)c1 [Compound 19] | – | < 30
21 | Cc1cc(C)cc(-n2nc(NS(=O)(=O)c3ccccc3)c3cc(C(C)C)cnc32)c1 [Compound 46] | > 6.00 | 30 to 60
22 | Cc1ccccc1-n1nc(NS(=O)(=O)c2ccccc2)c2ccc(C(C)(C)C)nc21 [Compound 45] | > 6.00 | 30 to 60
23 | Cc1cc(C)c(-n2nc(NS(=O)(=O)c3cccc(Cl)c3)c3ccc(C(C)(C)C)nc32)c(C)c1 [Compound 62] | – | < 30
24 | Cc1ccccc1-n1cc(NS(=O)(=O)c2ccccc2)c2ccc(C(C)(C)C)nc21 [Compound 89] | – | < 30
25 | Cc1cc(C)c(-n2nc(NS(=O)(=O)c3cccc(N(C)C)c3)c3ccc(C(C)(C)C)nc32)c(C)c1 [Compound 34, N-[6-tert-butyl-1-(2,4,6-trimethylphenyl)pyrazolo[3,4-b]pyridin-3-yl]-3-(dimethylamino)benzenesulfonamide] | > 6.00 | > 60
26 | COc1cccc(OC)c1S(=O)(=O)Nc1nn(-c2c(C)cc(C)cc2C)c2nc(C(C)(C)C)ccc12 [Compound 54] | – | < 30
27 | Cc1cc(C)c(-n2nc(NS(=O)(=O)c3ccccc3C)c3ccc(C(C)(C)C)nc32)c(C)c1 [Compound 69] | – | < 30
28 | COc1ccc(N)cc1S(=O)(=O)Nc1nn(-c2c(C)cc(C)cc2C)c2nc(C(C)(C)C)ccc12 [Compound 55] | 4.52 to 5.52 | 30 to 60
29 | CC(C)(C)c1ccc2c(NS(=O)(=O)c3ccccc3)cn(-c3cccc(Cl)c3)c2n1 [Compound 87] | – | < 30
30 | CC(C)n1c(NS(=O)(=O)c2ccccc2)nc2ccccc21 [Compound 85] | – | < 30
31 | COc1ccccc1-n1nc(NS(=O)(=O)c2ccccc2)c2ccc(C(C)(C)C)nc21 [Compound 51] | 5.52 to 6.00 | 30 to 60
32 | COc1cccc(-n2nc(NS(=O)(=O)c3ccccc3)c3ccc(C(C)(C)C)nc32)c1 [Compound 50] | > 6.00 | 30 to 60
33 | O=S(=O)(Nc1nc(Oc2ccccc2)c2ccccc2n1)c1ccccc1 [Compound 31, N-(4-phenoxyquinazolin-2-yl)benzenesulfonamide] | 4.52 to 5.52 | –
34 | CC(C)(C)C1CCc2nc(NS(=O)(=O)c3ccccc3)sc2C1 (stereo not drawn) [Compound 25] | 5.52 to 6.00 | 30 to 60

More lines, now with the values ahead:

Row | pEC50 | Emax [%] | Structure (SMILES)
35 | – | < 30 | Cc1cc(C)cc(-n2c(NS(=O)(=O)c3ccccc3)nc3cc(C(C)(C)C)ccc32)c1 [Compound 91]
36 | – | < 30 | CC(C)CCn1nc(NS(=O)(=O)c2ccccc2)c2ccc(C(C)(C)C)nc21 [Compound 41]
37 | – | < 30 | Cc1ccc(S(=O)(=O)Nc2nn(-c3c(C)cc(C)cc3C)c3nc(C(C)(C)C)ccc23)cc1 [Compound 66]
38 | > 6.00 | 30 to 60 | Cc1cc(C)cc(-n2nc(NS(=O)(=O)c3ccccc3)c3ccc(C(C)(C)C)nc32)c1 [Compound 37, N-[6-tert-Butyl-1-(3,5-dimethylphenyl)pyrazolo[3,4-b]pyridin-3-yl]benzenesulfonamide]
39 | > 6.00 | – | Nc1cccc(S(=O)(=O)Nc2nc(-c3ccccc3)c3ccn(-c4ccccc4)c3n2)c1 [Compound 32, 3-Amino-N-(4,7-diphenylpyrrolo[2,3-d]pyrimidin-2-yl)benzenesulfonamide]
40 | > 6.00 | 30 to 60 | Cc1ccc(-n2nc(NS(=O)(=O)c3ccccc3)c3ccc(C(C)(C)C)nc32)cc1 [Compound 44]
41 | – | < 30 | COc1ccc(S(=O)(=O)Nc2nn(-c3c(C)cc(C)cc3C)c3nc(C(C)(C)C)ccc23)cc1 [Compound 64]
42 | – | < 30 | Cc1cc(NS(=O)(=O)c2ccccc2)nc2ccccc12 [Compound 81]
43 | > 6.00 | – | CC(C)(C)c1ccccc1Oc1nc2ccccc2nc1NS(=O)(=O)c1ccccc1 [Compound 10, N-[3-(2-tert-butylphenoxy)quinoxalin-2-yl]benzenesulfonamide]
44 | 5.52 to 6.00 | 30 to 60 | Cc1cc(C)c(Oc2nc3ccccc3nc2NS(=O)(=O)c2ccccc2)c(C)c1 [Compound 13]
45 | – | < 30 | Cc1cc(C)cc(-n2c(NS(=O)(=O)c3ccccc3)nc3ccc(C(C)(C)C)cc32)c1 [Compound 92]
46 | 5.52 to 6.00 | 30 to 60 | O=S(=O)(Nc1nc2c(s1)CCc1ccccc1-2)c1ccccc1 [Compound 26]
47 | – | < 30 | Cc1cc(C)c(-n2nc3nc(C(C)(C)C)ccc3c2NS(=O)(=O)c2ccccc2)c(C)c1 [Compound 71]
48 | > 6.00 | 30 to 60 | Cc1cc(C)c(-n2nc(NS(=O)(=O)c3cccc4c3OCCO4)c3ccc(C(C)(C)C)nc32)c(C)c1 [Compound 53]
49 | – | < 30 | COc1cc(OC)cc(S(=O)(=O)Nc2nn(-c3c(C)cc(C)cc3C)c3nc(C(C)(C)C)ccc23)c1 [Compound 57]
50 | – | < 30 | CC(C)C(C)n1nc(NS(=O)(=O)c2ccccc2)c2ccc(C(C)(C)C)nc21 (stereo not drawn) [Compound 49]
51 | > 6.00 | – | O=S(=O)(Nc1nc(-c2ccccc2)c2ccn(-c3ccccc3)c2n1)c1ccccc1 [Compound 29, N-(4,7-Diphenylpyrrolo[2,3-d]pyrimidin-2-yl)benzenesulfonamide]
